Laboratory results: patent US8273705B2, “Conversion of apoptotic proteins” (The Burnham Institute, priority 2002, dated 2012)
Where two headings read alike, the source gives them in different places.

Columns and labels:
[1] = tested on: TR3 expression; conditions: human prostate cancer cells; cited from earlier work
[2] = tested on: estrogen-dependent and -independent breast cancer cells; conditions: estrogen-dependent and -independent cell lines; cited from earlier work
[3] = tested on: prostate cancer cells; conditions: cited from earlier work
[4] = tested on: lung and breast cancer cells; conditions: cited from earlier work
[5] = tested on: TR3 expression; conditions: lung cancer cells; cited from earlier work
[6] = tested on: TR3 expression; test: TR3 expression by Northern blotting in MDA-MB-231 cells; format: cell-based; conditions: 3 h, MM11453 and MM11384 10^−6 M, TPA 100 ng/ml, EGF 200 ng/ml
Description: TR3 is also expressed in both estrogen-dependent ZR-75-1 and in estrogen-independent MDA-MB-231 breast cancer cells (Wu et al. 1997 Mol Cell Bio 17:6598-6608). […] Total RNAs were prepared from MDA-MB-231 cells treated with MM1153 (10^−6 M), MM11384 (10^−6M), TPA (100 ng/ml) or EGF (200 ng/ml) for 3 h. and analyzed by Northern blotting.

[7] = tested on: MDA-MB-231 cells; test: GFP-TR3 subcellular localization by confocal microscopy in MDA-MB-231 cells; format: cell-based; conditions: 10^−6 M, 1 hour
Description: Subcellular localization assays—Cells were seeded onto cover-slips in 6-well plates overnight, then transiently transfected with GFP-fusion expression plasmids. After 16 hours, cells were washed with PBS and fixed in 4% paraformaldehyde. For mitochondrial staining, cells were then incubated with anti-Hsp60 goat IgG (Santa Cruz, USA), followed by anti-goat IgG conjugated with Cy3 (Sigma). For cyt c staining, cells were incubated with monoclonal anti-cyt c IgG (PharMingen), followed by anti-mouse IgG conjugated with Cy5 (Amersham). Fluorescent images were collected and analyzed using a MRC-1024 MP laser-scanning confocal microscope (Bio-Rad). Subcellular fractionation assays were performed as described (Li, et al. 2000 Science 289:1159-1164). Briefly, cells (1×10^7 cells) suspended in 0.5 ml hypotonic buffer (5 mM Tris-HCl, pH 7.4, 5 mM KCl, 1.5 mM MgCl2, 0.1 mM EGTA, pH 8.0, and 1 mM DTT) were homogenized and cell extracts were centrifuged at 500×g for 5 min. […]
To study whether the TR3 nuclear-to-mitochondrial targeting pathway also occurs in breast cancer cells, a GFP-TR3 fusion construct was transfected into MDA-MB-231 cells. […] Next, GFP-TR3/ΔDBD was transiently transfected into ZR-75-1 or MDA-MB-231 cells, stained for mitochondria (Hsp60) and cytochrome c (Cyt c), and analyzed by confocal microscopy.

[8] = tested on: TR3/Bcl-2 interaction; test: Co-IP of endogenous TR3 and Bcl-2 in LNCaP cells; format: cell-based; conditions: TPA 3 hours
Description: A. co-immunoprecipitation assays—to identify the interaction between TR3 and Bcl-2, a monoclonal antibody was generated against the ligand-binding domain (GBD) of TR3 for co-immunoprecipitation (Co-IP) assays. LNCaP cells were treated with TPA to induce endogenous TR3 expression for 3 hours. Cell extracts were prepared from TPA-treated and non-treated cells and incubated with mouse monoclonal anti-TR3 antibody. Immunoblotting of immunoprecipitates employed anti-Bcl-2 antibody or rabbit polyclonal anti-TR3 anti-body (Active Motif).

[9] = tested on: LNCaP prostate cancer cells; test: Colocalization of endogenous TR3 and transfected Bcl-2 in LNCaP cells; format: cell-based; conditions: TPA 100 ng/ml, 3 h
Description: D. co-localization in cells—First the interaction of endogenous TR3 and transfected Bcl-2 colocalization was identified in cells. The phorbol ester 12-0-tetradecanoyl phorbol-13-acetate (TPA) induces the expression of endogenous TR3 and its mitochondrial localization in LNCaP prostate cancer cells. LNCaP cells were transfected with Bcl-2 expression vector, treated with or without TPA (100 ng/ml) for 3 h, then immunostained with anti-Bcl-2 antibody (Santa Cruz) followed by Cy5-conjugated secondary antibody (Amersham Biosciences), or with mouse monoclonal anti-TR3 antibody followed by Cy3-conjugated secondary antibody (Sigma). Endogenous TR3 and transfected Bcl-2 were visualized using confocal microscopy and images were overlaid. […] TR3 was not detected prior to TPA treatment. […] In TPA-stimulated cells, the distribution patterns of endogenous TR3 and transfected Bcl-2 overlapped extensively in the cytoplasm, colocalizing with Hsp60, a mitochondria-specific protein.

[10] = molecular target: T1, Bcl-2 (Homo sapiens, UniProt P10415); test: GST pull-down assay; format: binding
T1 construct: expressed in transfected cells; host or cells: HEK293T
Description: (§1) TR3/Bcl-2 interaction assays—Reporter gene assays using NurRE-tk-CAT in CV-1 cells, and GST pull-down assay were described previously (Li, et al. 2000 Science 289, 1159-1164). For the mammalian two-hybrid assays, CV-1 cells were co-transfected with pcDNA-Gal4TAD-TR3 or pcDNA-Gal4TAD-TR3/ΔDBD and pcDNA-Gal4DBD-Bcl-2/ΔTM along with a luciferase reporter gene driven by four copies of the Gal4-binding site. The cells were harvested and reporter gene activity was measured. For Co-IP assays, HEK293T cells were transiently transfected with various expression plasmids using a modified calcium phosphate precipitation method (Wu et al, 1997) in the presence of caspase inhibitors (zVAD-fmk) to prevent degradation of TR3 protein due to apoptosis. Cells were suspended in lysis buffer (50 mM Tris-HCl, PH7.4; 150 mM NaCl; 20 mM EDTA; 1% NP-40; 1 mM PMSF; 50 μg/ml Leupeptin; […]; 0.1 mM Na3VO4; and 1 mM DTT). Cells extracts were cleared by incubation with the Protein A/G plus Agarose beads (Santa Cruz) and then incubated with appropriate antibody and 30 μl of Protein A or G plus Agarose beads overnight at 4° C. […] Immunoreactive products were detected by chemiluminescence with an enhanced chemiluminescence system (ECL) (Amersham).
C. in vitro protein binding assays. […] Bound proteins were analyzed by SDS-PAGE autoradiography. ^35S-labeled Bcl-2 was pulled down by GST-TR3 but not by GST. […]

[11] = molecular target: T2, Bcl-2/ΔTM (Homo sapiens, UniProt P10415); test: Mammalian two-hybrid assay in CV-1 cells; format: cell-based; conditions: Gal-TAD fusion co-expressed with Gal4-DBD-Bcl-2/ΔTM, 48 h
T2 construct: expressed in transfected cells; host or cells: CV-1
Description: as §1, with “DTT).” for “DTT). Cells extracts were cleared by incubation with the Protein A/G plus Agarose beads (Santa Cruz) and then incubated with appropriate antibody and 30 μl of Protein A or G plus Agarose beads overnight at 4° C.”
E. Two-hybrid assay—a two-hybrid assay was performed to assess the interaction of TR3 and Bcl-2. […] Reporter gene activity was determined 48 h later and normalized relative to β-gal activity.

T2 sequence (P10415 1-204 limits assumed, stated change not applied): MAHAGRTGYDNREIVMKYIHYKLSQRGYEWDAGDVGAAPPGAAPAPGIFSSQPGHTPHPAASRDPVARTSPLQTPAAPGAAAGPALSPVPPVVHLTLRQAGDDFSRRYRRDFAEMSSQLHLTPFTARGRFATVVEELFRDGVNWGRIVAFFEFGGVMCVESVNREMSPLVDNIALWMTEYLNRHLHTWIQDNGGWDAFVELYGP
T1 sequence (P10415 whole entry): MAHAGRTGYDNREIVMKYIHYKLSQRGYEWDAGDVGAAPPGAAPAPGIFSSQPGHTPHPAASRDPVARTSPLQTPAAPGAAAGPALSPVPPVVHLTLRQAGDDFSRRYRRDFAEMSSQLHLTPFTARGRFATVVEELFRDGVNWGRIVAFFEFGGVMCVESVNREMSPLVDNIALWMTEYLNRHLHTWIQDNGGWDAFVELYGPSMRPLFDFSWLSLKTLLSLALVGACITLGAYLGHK

For `CNc1ccc2oc(C[C@H]3O[C@@]4(CC[C@H]3C)O[C@H]([C@H](C)C(=O)c3ccc[nH]3)[C@H](C)C[C@H]4C)nc2c1C(=O)O` [A23187], the TR3 expression [1] is given as “induced TR3 expression”.

In the case of `O=C(O)c1ccc2cc(-c3ccc(O)c(C45CC6CC(CC(C6)C4)C5)c3)ccc2c1` [AHPN, 6-[3-(1-adamantyl)-4-hydroxyphenyl]-2-naphthalene carboxylic acid], the “apoptosis of breast cancer cells” value [2] is listed as “effectively induces apoptosis”, the “apoptosis of prostate cancer cells” value [3] is listed as “potently induces apoptosis” and the “apoptosis of lung and breast cancer cells” value [4] is listed as “effectively induce apoptosis”. For the same compound, the TR3 expression [5] was “significantly induced”.

In the case of `Cc1cc2c(cc1/C=C(\Br)C(=O)c1ccc(C(=O)O)cc1)C(C)(C)CCC2(C)C` [MM11384, (Z)-4-[2-bromo-3-(5,6,7,8-tetrahydro-3,5,5,8,8-pentamethyl-2-naphthalenyl)propenoyl]benzoic acid], the TR3 expression [6] is listed as “induced”, the TR3 expression [1] is listed as “induced TR3 expression” and the GFP-TR3 subcellular localization [7] is listed as “translocated to mitochondria”.

In the case of `O=C(O)c1cc2ccc(-c3ccc(O)c(C45CC6CC(CC(C6)C4)C5)c3)cc2cc1Cl` [MM11453, 6-[3-(1-adamantyl)-4-hydroxyphenyl]-3-chloro-2-naphthalenecarboxylic acid], the “apoptosis of breast cancer cells” value [2] is listed as “effectively induces apoptosis”, the TR3 expression [6] is listed as “significantly induced” and the TR3 expression [1] is listed as “induced TR3 expression”. For the same compound, the GFP-TR3 subcellular localization [7] was “translocated to mitochondria”.

In the case of `CCCCCCCCCCCCCC(=O)O[C@@H]1[C@@H](C)[C@@]2(O)[C@@H](C=C(CO)C[C@]3(O)C(=O)C(C)=C[C@@H]23)[C@@H]2C(C)(C)[C@]12OC(C)=O` [TPA, 12-O-tetradecanoyl phorbol-13-acetate], the “co-immunoprecipitation of Bcl-2 by anti-TR3 antibody” value [8] is listed as “specifically co-immunoprecipitated”, the TR3 expression [6] is listed as “induced” and the TR3 expression [1] is listed as “induced TR3 expression”. The TR3 immunostaining [9] was “strong TR3 immunostaining” and the “cells demonstrating colocalization of endogenous TR3 and transfected Bcl-2” value [9] was “Approximately 80%”.

In the case of `COc1cc([C@@H]2c3cc4c(cc3[C@@H](O[C@@H]3O[C@@H]5CO[C@@H](C)O[C@H]5[C@H](O)[C@H]3O)[C@H]3COC(=O)[C@H]23)OCO4)cc(OC)c1O` [VP-16], the TR3 expression [1] is listed as “induced TR3 expression”.

In the case of “EGF: the mitogenic agent epidermal growth factor”, the TR3 expression [6] was “induced”.

For “GST-TR3: GST fusion of TR3 immobilized on glutathione-Sepharose”, the “binding of ^35S-labeled Bcl-2” value [10] was “pulled down”.

In the case of “TR3: orphan receptor TR3, nuclear transcription factor”, the “Gal4 reporter gene activity” value [11] was “strongly activated”.
